Assay results: the kinase profiling compilation of Christmann-Franck et al. (2016)

Experiments:
Assay in all cases: KINOMEscan competition binding
Settings in all cases: compound 1.0 µM
[1] = target: LATS1 (human) (UniProt O95835)
[2] = target: HIPK4 (human) (UniProt Q8NE63)
[3] = target: CDK8 (human) (UniProt P49336)
[4] = target: PKN1 (human) (UniProt Q16512)
[5] = target: CDK15 (human) (UniProt Q96Q40)
[6] = target: CHEK2 (human) (UniProt O96017)
[7] = tested on: EGFR (human), P00533 [G719S]
[8] = target: SYK (human) (UniProt P43405)
[9] = target: PHKG2 (human) (UniProt P15735)
[10] = target: RPS6KA2 KD2 (human) (UniProt Q15349)
[11] = target: PAK6 (human) (UniProt Q9NQU5)
[12] = target: ADCK3 (human) (UniProt Q8NI60)
[13] = target: FGFR3 (human) (UniProt P22607)
[14] = target: PTK6 (human) (UniProt Q13882)
[15] = target: NIM1 (human) (UniProt Q8IY84)
[16] = target: CDK5 (human) (UniProt Q00535)
[17] = target: MAP4K5 (human) (UniProt Q9Y4K4)
[18] = target: TBK1 (human) (UniProt Q9UHD2)
[19] = target: PAK1 (human) (UniProt Q13153)
[20] = target: TIE1 (human) (UniProt P35590)
[21] = target: STK35 (human) (UniProt Q8TDR2)
[22] = target: MAP2K1 (human) (UniProt Q02750)
[23] = target: ERBB4 (human) (UniProt Q15303)
[24] = target: JAK3 JH1 catalytic (human) (UniProt P52333)
[25] = target: SIK2 (human) (UniProt Q9H0K1)
[26] = target: CSNK1G1 (human) (UniProt Q9HCP0)
[27] = target: NTRK2 (human) (UniProt Q16620)
[28] = target: MAP3K12 (human) (UniProt Q12852)
[29] = target: PRKAA2 (human) (UniProt P54646)
[30] = target: EPHB3 (human) (UniProt P54753)
[31] = target: CSNK1D (human) (UniProt P48730)
[32] = target: JAK1 JH1 catalytic (human) (UniProt P23458)
[33] = target: CSNK1E (human) (UniProt P49674)
[34] = target: STK25 (human) (UniProt O00506)
[35] = target: EPHA3 (human) (UniProt P29320)
[36] = target: MAP3K5 (human) (UniProt Q99683)
[37] = target: CDK2 (human) (UniProt P24941)
[38] = target: SIK3 (human) (UniProt Q9Y2K2)
[39] = target: EPHA7 (human) (UniProt Q15375)

Sequence of JAK1 JH1 catalytic (human) (P23458 whole entry, looked up): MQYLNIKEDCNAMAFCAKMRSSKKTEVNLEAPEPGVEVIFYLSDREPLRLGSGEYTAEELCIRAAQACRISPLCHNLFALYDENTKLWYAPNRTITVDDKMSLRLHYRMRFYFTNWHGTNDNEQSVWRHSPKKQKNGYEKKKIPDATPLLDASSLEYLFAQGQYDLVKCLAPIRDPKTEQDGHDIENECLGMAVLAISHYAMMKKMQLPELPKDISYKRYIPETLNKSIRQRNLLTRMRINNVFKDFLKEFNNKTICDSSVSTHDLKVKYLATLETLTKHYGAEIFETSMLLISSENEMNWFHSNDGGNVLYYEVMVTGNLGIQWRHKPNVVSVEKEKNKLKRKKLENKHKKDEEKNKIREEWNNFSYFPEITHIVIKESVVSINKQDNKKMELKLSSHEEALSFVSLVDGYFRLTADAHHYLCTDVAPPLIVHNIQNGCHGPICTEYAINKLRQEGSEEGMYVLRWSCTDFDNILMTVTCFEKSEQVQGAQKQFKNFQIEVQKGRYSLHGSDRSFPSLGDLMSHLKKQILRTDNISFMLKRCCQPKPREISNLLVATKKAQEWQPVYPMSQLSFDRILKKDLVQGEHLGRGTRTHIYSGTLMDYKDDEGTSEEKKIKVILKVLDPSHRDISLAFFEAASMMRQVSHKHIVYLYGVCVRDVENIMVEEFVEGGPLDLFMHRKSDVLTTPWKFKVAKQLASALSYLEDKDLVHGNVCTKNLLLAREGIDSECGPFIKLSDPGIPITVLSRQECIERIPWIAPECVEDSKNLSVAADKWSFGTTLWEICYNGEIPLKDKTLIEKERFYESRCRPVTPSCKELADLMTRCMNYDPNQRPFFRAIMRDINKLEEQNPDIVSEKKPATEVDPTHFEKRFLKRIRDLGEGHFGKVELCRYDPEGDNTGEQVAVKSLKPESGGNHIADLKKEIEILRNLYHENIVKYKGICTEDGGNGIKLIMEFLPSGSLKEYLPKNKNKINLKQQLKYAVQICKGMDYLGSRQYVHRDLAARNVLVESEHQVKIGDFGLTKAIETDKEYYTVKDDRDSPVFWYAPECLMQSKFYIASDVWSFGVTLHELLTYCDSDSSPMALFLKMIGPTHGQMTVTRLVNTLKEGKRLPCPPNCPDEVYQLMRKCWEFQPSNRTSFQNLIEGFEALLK
Sequence of RPS6KA2 KD2 (human) (Q15349 whole entry, looked up): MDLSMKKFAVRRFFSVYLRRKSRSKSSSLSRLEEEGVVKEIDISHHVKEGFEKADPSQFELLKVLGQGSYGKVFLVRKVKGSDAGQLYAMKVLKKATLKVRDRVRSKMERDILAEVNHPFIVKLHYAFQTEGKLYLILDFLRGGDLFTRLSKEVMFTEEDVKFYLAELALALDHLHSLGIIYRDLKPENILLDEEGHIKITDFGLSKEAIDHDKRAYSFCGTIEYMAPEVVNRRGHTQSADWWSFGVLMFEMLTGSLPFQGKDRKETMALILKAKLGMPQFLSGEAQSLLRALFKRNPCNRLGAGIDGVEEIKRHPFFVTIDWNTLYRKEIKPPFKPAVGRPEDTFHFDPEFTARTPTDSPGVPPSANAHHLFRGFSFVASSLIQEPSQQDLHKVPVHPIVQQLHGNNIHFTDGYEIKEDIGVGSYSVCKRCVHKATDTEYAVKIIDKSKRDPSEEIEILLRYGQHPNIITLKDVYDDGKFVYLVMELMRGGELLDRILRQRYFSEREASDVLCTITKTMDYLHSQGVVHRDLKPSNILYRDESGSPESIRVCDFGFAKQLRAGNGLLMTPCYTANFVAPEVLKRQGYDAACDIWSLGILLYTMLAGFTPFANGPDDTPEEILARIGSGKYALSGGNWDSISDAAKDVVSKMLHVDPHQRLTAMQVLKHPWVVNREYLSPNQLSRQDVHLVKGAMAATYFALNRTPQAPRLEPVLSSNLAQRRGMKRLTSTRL
Sequence of CDK5 (human) (Q00535 whole entry, looked up): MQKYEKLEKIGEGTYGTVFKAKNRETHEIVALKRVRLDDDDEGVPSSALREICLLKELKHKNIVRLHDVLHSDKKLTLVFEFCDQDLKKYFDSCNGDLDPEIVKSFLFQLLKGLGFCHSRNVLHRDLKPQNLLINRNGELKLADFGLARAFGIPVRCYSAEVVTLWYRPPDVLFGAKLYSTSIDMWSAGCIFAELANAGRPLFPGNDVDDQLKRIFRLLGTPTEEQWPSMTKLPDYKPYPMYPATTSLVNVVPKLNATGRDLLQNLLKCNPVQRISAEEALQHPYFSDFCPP
Sequence of EPHB3 (human) (P54753 whole entry, looked up): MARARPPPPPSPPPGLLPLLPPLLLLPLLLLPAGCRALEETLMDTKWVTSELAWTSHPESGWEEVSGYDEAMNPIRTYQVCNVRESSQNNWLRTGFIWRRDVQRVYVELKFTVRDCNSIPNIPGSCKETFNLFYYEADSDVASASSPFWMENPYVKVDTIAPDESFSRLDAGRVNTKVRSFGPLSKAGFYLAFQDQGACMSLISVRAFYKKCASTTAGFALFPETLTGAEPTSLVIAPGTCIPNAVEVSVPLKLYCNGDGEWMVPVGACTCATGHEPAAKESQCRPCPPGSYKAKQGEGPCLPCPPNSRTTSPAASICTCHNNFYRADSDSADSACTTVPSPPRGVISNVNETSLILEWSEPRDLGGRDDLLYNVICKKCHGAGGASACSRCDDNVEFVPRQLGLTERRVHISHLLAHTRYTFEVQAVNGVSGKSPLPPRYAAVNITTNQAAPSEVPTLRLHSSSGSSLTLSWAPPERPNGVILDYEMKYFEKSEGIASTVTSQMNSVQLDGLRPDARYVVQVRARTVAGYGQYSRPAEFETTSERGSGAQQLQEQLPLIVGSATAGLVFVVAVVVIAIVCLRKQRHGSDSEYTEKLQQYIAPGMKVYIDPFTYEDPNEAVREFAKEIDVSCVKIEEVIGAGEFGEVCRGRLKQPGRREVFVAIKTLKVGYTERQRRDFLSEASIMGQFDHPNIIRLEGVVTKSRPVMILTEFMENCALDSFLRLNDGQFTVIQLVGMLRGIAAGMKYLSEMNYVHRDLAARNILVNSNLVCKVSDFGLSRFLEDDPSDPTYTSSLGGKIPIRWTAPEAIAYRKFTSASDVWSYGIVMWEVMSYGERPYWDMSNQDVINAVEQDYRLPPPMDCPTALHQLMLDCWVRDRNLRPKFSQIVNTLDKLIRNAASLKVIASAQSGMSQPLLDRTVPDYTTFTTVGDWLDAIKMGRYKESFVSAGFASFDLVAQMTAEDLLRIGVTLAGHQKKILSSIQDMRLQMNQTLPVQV
Sequence of NTRK2 (human) (Q16620 whole entry, looked up): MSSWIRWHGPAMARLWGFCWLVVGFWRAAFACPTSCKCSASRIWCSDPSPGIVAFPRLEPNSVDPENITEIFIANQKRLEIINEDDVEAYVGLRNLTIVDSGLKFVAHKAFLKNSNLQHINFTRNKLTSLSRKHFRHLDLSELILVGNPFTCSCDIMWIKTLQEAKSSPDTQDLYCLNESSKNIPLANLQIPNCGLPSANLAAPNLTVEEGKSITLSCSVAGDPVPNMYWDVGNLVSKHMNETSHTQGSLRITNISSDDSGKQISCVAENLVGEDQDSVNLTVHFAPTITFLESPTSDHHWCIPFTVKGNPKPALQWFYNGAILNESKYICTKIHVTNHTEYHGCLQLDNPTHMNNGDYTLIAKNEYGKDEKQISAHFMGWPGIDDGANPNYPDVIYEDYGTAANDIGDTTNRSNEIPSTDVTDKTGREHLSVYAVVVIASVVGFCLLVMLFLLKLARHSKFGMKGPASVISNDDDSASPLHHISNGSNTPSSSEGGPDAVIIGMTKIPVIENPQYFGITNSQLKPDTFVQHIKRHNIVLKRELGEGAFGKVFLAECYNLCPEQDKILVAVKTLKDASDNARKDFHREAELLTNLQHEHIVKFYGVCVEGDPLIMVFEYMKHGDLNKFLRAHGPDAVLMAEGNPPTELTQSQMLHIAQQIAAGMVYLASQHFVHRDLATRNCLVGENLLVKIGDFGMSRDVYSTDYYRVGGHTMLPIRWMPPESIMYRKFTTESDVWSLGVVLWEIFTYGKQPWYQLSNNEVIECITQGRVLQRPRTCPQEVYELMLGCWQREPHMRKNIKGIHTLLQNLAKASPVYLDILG
Sequence of NIM1 (human) (Q8IY84 whole entry, looked up): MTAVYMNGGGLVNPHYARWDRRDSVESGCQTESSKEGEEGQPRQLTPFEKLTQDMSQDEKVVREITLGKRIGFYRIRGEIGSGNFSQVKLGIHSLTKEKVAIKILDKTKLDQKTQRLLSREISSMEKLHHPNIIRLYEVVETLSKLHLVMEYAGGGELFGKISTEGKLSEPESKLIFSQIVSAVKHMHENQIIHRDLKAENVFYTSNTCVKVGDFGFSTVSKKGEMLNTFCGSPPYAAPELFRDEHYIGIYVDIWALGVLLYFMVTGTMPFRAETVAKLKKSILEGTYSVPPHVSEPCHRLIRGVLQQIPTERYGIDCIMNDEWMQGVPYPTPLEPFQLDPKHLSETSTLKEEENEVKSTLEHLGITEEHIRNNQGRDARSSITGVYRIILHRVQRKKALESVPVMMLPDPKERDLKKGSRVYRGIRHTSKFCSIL
Sequence of MAP2K1 (human) (Q02750 whole entry, looked up): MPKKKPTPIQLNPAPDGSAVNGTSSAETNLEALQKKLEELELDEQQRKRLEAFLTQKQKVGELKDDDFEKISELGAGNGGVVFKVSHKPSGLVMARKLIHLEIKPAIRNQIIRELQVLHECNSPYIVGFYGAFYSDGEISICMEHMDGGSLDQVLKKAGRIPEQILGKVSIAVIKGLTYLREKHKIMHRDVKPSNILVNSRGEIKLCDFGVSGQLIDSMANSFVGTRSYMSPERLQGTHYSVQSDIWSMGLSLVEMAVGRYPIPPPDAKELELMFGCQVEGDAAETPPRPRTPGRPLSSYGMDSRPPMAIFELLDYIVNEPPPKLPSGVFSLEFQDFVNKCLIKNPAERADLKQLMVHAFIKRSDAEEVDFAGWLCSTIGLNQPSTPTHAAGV

Question: Which kinase still bound, per cent of control [1] does the source give for `CNc1nc(Nc2ccc(C(=O)N3CCOCC3)cc2OC)ncc1Cl` here?
Answer: 100%

Question: What about the kinase still bound, per cent of control [2] of the same compound?
Answer: 100%

Question: What about the residual activity [3] of the same compound?
Answer: 100%

Question: What about the kinase still bound, per cent of control [4] of the same compound?
Answer: 100%

Question: What about the residual activity [5] of the same compound?
Answer: 84%

Question: And the kinase still bound, per cent of control [6]?
Answer: 26%

Question: What about the kinase still bound, per cent of control [7] of the same compound?
Answer: 100%

Question: What about the kinase still bound, per cent of control [8] of the same compound?
Answer: 100%

Question: What about the kinase still bound, per cent of control [9] of the same compound?
Answer: 58%

Question: What about the kinase still bound, per cent of control [10] of the same compound?
Answer: 92%

Question: And the kinase still bound, per cent of control [11]?
Answer: 100%

Question: And the kinase still bound, per cent of control [12]?
Answer: 100%

Question: And the kinase still bound, per cent of control [13]?
Answer: 100%

Question: And the kinase still bound, per cent of control [14]?
Answer: 47%

Question: What about the kinase still bound, per cent of control [15] of the same compound?
Answer: 100%

Question: What about the residual activity [16] of the same compound?
Answer: 100%

Question: What about the kinase still bound, per cent of control [17] of the same compound?
Answer: 73%

Question: And the kinase still bound, per cent of control [18]?
Answer: 100%

Question: What about the kinase still bound, per cent of control [19] of the same compound?
Answer: 100%

Question: What about the kinase still bound, per cent of control [20] of the same compound?
Answer: 100%

Question: What about the kinase still bound, per cent of control [21] of the same compound?
Answer: 100%

Question: And the kinase still bound, per cent of control [22]?
Answer: 89%

Question: And the kinase still bound, per cent of control [23]?
Answer: 100%

Question: And the kinase still bound, per cent of control [24]?
Answer: 90%

Question: And the kinase still bound, per cent of control [25]?
Answer: 100%

Question: And the kinase still bound, per cent of control [26]?
Answer: 55%

Question: And the kinase still bound, per cent of control [27]?
Answer: 93%

Question: And the residual activity [28]?
Answer: 100%

Question: And the kinase still bound, per cent of control [29]?
Answer: 93%

Question: What about the kinase still bound, per cent of control [30] of the same compound?
Answer: 100%

Question: And the residual activity [31]?
Answer: 100%

Question: And the kinase still bound, per cent of control [32]?
Answer: 82%

Question: And the kinase still bound, per cent of control [33]?
Answer: 100%

Question: And the kinase still bound, per cent of control [34]?
Answer: 100%

Question: What about the kinase still bound, per cent of control [35] of the same compound?
Answer: 100%

Question: What about the kinase still bound, per cent of control [36] of the same compound?
Answer: 100%

Question: What about the residual activity [37] of the same compound?
Answer: 95%

Question: What about the kinase still bound, per cent of control [38] of the same compound?
Answer: 100%

Question: What about the kinase still bound, per cent of control [39] of the same compound?
Answer: 100%
